≈ marks a conversion by molar mass, not a printed value. Where two headings read alike, the source gives them in different places.
What was measured:
[1] = tested on: Micrococcus luteus ATCC 9341; test: Bacteriostatic power in solid medium (MIC), aerobic Gram positive; type: cell-based; conditions: Micrococcus luteus, ATCC9341, read-out: minimum inhibiting concentration
[2] = physchem; type: physicochemical; conditions: acidic environment
Description: t 1/2 represents the half life time of the antibiotics as determined by
high pressure liquid phase chromatography (HPLC).

[3] = tested on: Proteus vulgaris ATCC 6380; test: Bacteriostatic power in solid medium (MIC), aerobic Gram negative; type: cell-based; conditions: Proteus vulgaris, ATCC6380, read-out: minimum inhibiting concentration
[4] = tested on: Salmonella typhi LRP 8; test: as above; type: cell-based; conditions: Salmonella enterica, TYPHI, read-out: minimum inhibiting concentration
[5] = tested on: Escherichia coli LRP 50; test: as above; type: cell-based; conditions: Escherichia coli, LRP50, read-out: minimum inhibiting concentration
[6] = tested on: Neisseria Gonorrhoeae ATCC 19424; test: as above; type: cell-based; conditions: Neisseria gonorrhoeae, ATCC19424, read-out: minimum inhibiting concentration
[7] = tested on: Klebsiella pneumoniae LRP 54; test: as above; type: cell-based; conditions: Klebsiella pneumoniae, LRP54, read-out: minimum inhibiting concentration
[8] = tested on: Streptococcus pyogenes ATCC 8668; test: Bacteriostatic power in solid medium (MIC), aerobic Gram positive; type: cell-based; conditions: Streptococcus pyogenes, ATCC8668, read-out: minimum inhibiting concentration
[9] = tested on: Streptococcus pneumonieae LRP 53; test: as above; type: cell-based; conditions: Streptococcus, LRP53, read-out: minimum inhibiting concentration
[10] = tested on: Staphylococcus aureus ATCC 6538 P; test: as above; type: cell-based; conditions: Staphylococcus aureus, ATCC6538, read-out: minimum inhibiting concentration
[11] = tested on: Streptococcus pneumonieae ATCC 6303; test: as above; type: cell-based; conditions: Streptococcus, ATCC6303, read-out: minimum inhibiting concentration
[12] = tested on: Streptococcus faecalis LRP 7; test: as above; type: cell-based; conditions: Enterococcus faecalis, LRP7, read-out: minimum inhibiting concentration
[13] = tested on: Bacteroides fragilis ATCC 23745; test: Bacteriostatic power in solid medium (MIC), anaerobic; type: cell-based; conditions: Bacteroides fragilis, ATCC23745, read-out: minimum inhibiting concentration
[14] = tested on: Corynebacterium diphteriae LRP 24; test: Bacteriostatic power in solid medium (MIC), aerobic Gram positive; type: cell-based; conditions: Corynebacterium, LRP24, read-out: minimum inhibiting concentration
[15] = tested on: Staphylococcus aureus ATCC 14154; test: as above; type: cell-based; conditions: Staphylococcus aureus, ATCC14154, LRP 78, Erythromicina resistant, read-out: minimum inhibiting concentration
Description: (§1) Turning now to an examination of the novel macrolide antibiotics produced according to the present invention, they are all characterized by a bacteriostatic spectrum like that of erythromycin and by the stability in acidic environment, whereby their direct administration by oral route is possible, without having recourse to esters and/or salts, showing the afore mentioned disadvantages and problems. The above is confirmed by the following Table 1, wherein the MIC values are reported, indicating the bacteriostatic power, and by the Table 2, giving the stability values in acidic environment. Without having to be construed in a limiting sense, it seems plausible that the greater stability of the macrolide. antibiotics of the present invention can be attributed to the presence in the molecule of the antibiotic of the neutral sugar oleandrose (J. Antib. (1976) XXIX (7), 728).
(§2) Bacteriostatic power in solid medium of Erythromycin A, Erythromycin B,
(§3) aerobic and anaerobic bacteria, Gram positive and Gram negative minimum
(§4) inhibiting concentrations expressed in mcg/ml.

[16] = tested on: Micrococcus luteus ATCC 15957; test: as above; type: cell-based; conditions: Micrococcus luteus, ATCC15957, LRP 193, Erythromicina resistant, read-out: minimum inhibiting concentration
Description: as §1, §2, §3, §4

[17] = tested on: Fusobacterium necrophorum ATCC 27852; test: Bacteriostatic power in solid medium (MIC), anaerobic; type: cell-based; conditions: Fusobacterium necrophorum, ATCC27852, read-out: minimum inhibiting concentration
[18] = tested on: Streptococcus pneumonieae LRP 52; test: Bacteriostatic power in solid medium (MIC), aerobic Gram positive; type: cell-based; conditions: Streptococcus, LRP52, read-out: minimum inhibiting concentration
[19] = tested on: Bacillus subtilis LRP 25; test: as above; type: cell-based; conditions: Bacillus subtilis, LRP25, read-out: minimum inhibiting concentration
[20] = tested on: Mycoplasma hominis I ATCC 14097; test: Bacteriostatic power in solid medium (MIC), aerobic Gram negative; type: cell-based; conditions: Metamycoplasma hominis, ATCC14097, read-out: minimum inhibiting concentration
[21] = tested on: Streptococcus pyogenes LRP 197; test: Bacteriostatic power in solid medium (MIC), aerobic Gram positive; type: cell-based; conditions: Streptococcus pyogenes, LRP197, read-out: minimum inhibiting concentration
[22] = tested on: Streptococcus faecalis sub. zymogenes ATCC 12958; test: as above; type: cell-based; conditions: Enterococcus faecalis, ATCC12958, read-out: minimum inhibiting concentration
[23] = tested on: Staphylococcus aureus LRP 14; test: as above; type: cell-based; conditions: Staphylococcus aureus, LRP14, read-out: minimum inhibiting concentration
[24] = tested on: Clostridium perfrigens ATCC 3624; test: Bacteriostatic power in solid medium (MIC), anaerobic; type: cell-based; conditions: Clostridium, ATCC3624, LRP 206, read-out: minimum inhibiting concentration
[25] = tested on: Acholeplasma laidlawii ATCC 23206; test: Bacteriostatic power in solid medium (MIC), aerobic Gram negative; type: cell-based; conditions: Acholeplasma laidlawii, ATCC23206, read-out: minimum inhibiting concentration
[26] = tested on: Pseudomonas aeruginosa LRP 9; test: as above; type: cell-based; conditions: Pseudomonas aeruginosa, LRP9, read-out: minimum inhibiting concentration
Description: as §1, §2, §3, §4

[27] = tested on: Haemophilus influenzae ATCC 19418; test: as above; type: cell-based; conditions: Haemophilus influenzae, ATCC19418, LRP 213, read-out: minimum inhibiting concentration
Description: as §1, §2, §3, §4

[28] = tested on: Shigella sonnei LRP 5; test: as above; type: cell-based; conditions: Shigella sonnei, LRP5, read-out: minimum inhibiting concentration
Description: as §1, §2, §3, §4

[29] = Relative solubility in water phase (extraction, TLC and HPLC control); type: physicochemical; conditions: relative to P 15148, P 15149 and P 15153; alkaline aqueous phase
Description: Before each extraction the pH of the aqueous phase is brought again to 9.

SMILES	MIC [1]	half-life ([2]; pH 3, read-out: t 1/2)	half-life ([2]; pH 4, read-out: t 1/2)	MIC [3]	MIC [4]	MIC [5]	MIC [6]	MIC [7]	MIC [8]	MIC [9]	MIC [10]	MIC [11]	MIC [12]	MIC [13]	MIC [14]	MIC [15]	MIC [16]	MIC [17]	MIC [18]	MIC [19]	further results
CC[C@H]1OC(=O)[C@H](C)[C@@H](O[C@H]2C[C@H](OC)[C@@H](O)[C@H](C)O2)[C@H](C)[C@@H](O[C@@H]2O[C@H](C)C[C@H](N(C)C)[C@H]2O)[C@](C)(O)C[C@](C)(O)C(=O)[C@H](C)[C@@H](O)[C@H]1C [P 15148, 3-O-oleandrosyl-5-O-desosaminyl-(8S)-8-hydroxyerythronolide B]	0.049 µg/mL (≈ 0.0681 µM)	> 100 h	> 100 h	> 25 µg/mL	25 µg/mL (≈ 34.7 µM)	> 25 µg/mL	1.56 µg/mL (≈ 2.17 µM)	> 25 µg/mL	0.195 µg/mL (≈ 0.271 µM)	0.097 µg/mL (≈ 0.135 µM)	1.56 µg/mL (≈ 2.17 µM)	0.195 µg/mL (≈ 0.271 µM)	0.78 µg/mL (≈ 1.08 µM)	6.25 µg/mL (≈ 8.68 µM)	0.097 µg/mL (≈ 0.135 µM)	> 25 µg/mL	> 25 µg/mL	> 25 µg/mL	0.195 µg/mL (≈ 0.271 µM)	0.78 µg/mL (≈ 1.08 µM)	half-life ([2]; pH 2): 27 h; MIC [20]: > 25 µg/mL; MIC [21]: 0.195 µg/mL (≈ 0.271 µM); MIC [22]: 0.78 µg/mL (≈ 1.08 µM); MIC [23]: 1.56 µg/mL (≈ 2.17 µM); MIC [24]: 25 µg/mL (≈ 34.7 µM); MIC [25]: 6.25 µg/mL (≈ 8.68 µM); MIC [26]: > 25 µg/mL; MIC [27]: > 25 µg/mL; MIC [28]: > 25 µg/mL
CC[C@H]1OC(=O)[C@H](C)[C@@H](O[C@H]2C[C@H](OC)[C@@H](O)[C@H](C)O2)[C@H](C)[C@@H](O[C@@H]2O[C@H](C)C[C@H](N(C)C)[C@H]2O)[C@](C)(O)C[C@@H](C)C(=O)[C@H](C)[C@@H](O)[C@H]1C [P 15149, 3-O-oleandrosyl-5-O-desosaminyl-erythronolide B]	0.097 µg/mL (≈ 0.138 µM)	> 100 h	> 100 h	> 25 µg/mL	> 25 µg/mL	> 25 µg/mL	0.195 µg/mL (≈ 0.277 µM)	> 25 µg/mL	0.097 µg/mL (≈ 0.138 µM)	0.097 µg/mL (≈ 0.138 µM)	0.78 µg/mL (≈ 1.11 µM)	0.097 µg/mL (≈ 0.138 µM)	0.78 µg/mL (≈ 1.11 µM)	3.12 µg/mL (≈ 4.43 µM)	0.049 µg/mL (≈ 0.0696 µM)	> 25 µg/mL	> 25 µg/mL	> 25 µg/mL	0.097 µg/mL (≈ 0.138 µM)	0.039 µg/mL (≈ 0.0554 µM)	half-life ([2]; pH 2): 18 h; MIC [20]: > 25 µg/mL; MIC [21]: 0.097 µg/mL (≈ 0.138 µM); MIC [22]: 0.78 µg/mL (≈ 1.11 µM); MIC [23]: 0.78 µg/mL (≈ 1.11 µM); MIC [24]: 12.5 µg/mL (≈ 17.8 µM); MIC [25]: 12.5 µg/mL (≈ 17.8 µM); MIC [26]: > 25 µg/mL; MIC [27]: 6.25 µg/mL (≈ 8.88 µM); MIC [28]: > 25 µg/mL
CO[C@H]1C[C@H](O[C@H]2[C@H](C)[C@@H](O[C@@H]3O[C@H](C)C[C@H](N(C)C)[C@H]3O)[C@](C)(O)C[C@@H](C)C(=O)[C@H](C)[C@@H](O)[C@@H](C)[C@@H](CCO)OC(=O)[C@@H]2C)O[C@@H](C)[C@@H]1O [P 15150, 3-O-oleandrosyl-5-O-desosaminyl-15-hydroxyerythronolide B]	0.195 µg/mL (≈ 0.271 µM)	> 100 h	> 100 h	> 25 µg/mL	25 µg/mL (≈ 34.7 µM)	> 25 µg/mL	0.195 µg/mL (≈ 0.271 µM)	> 25 µg/mL	0.097 µg/mL (≈ 0.135 µM)	0.39 µg/mL (≈ 0.542 µM)	3.12 µg/mL (≈ 4.33 µM)	0.195 µg/mL (≈ 0.271 µM)	6.25 µg/mL (≈ 8.68 µM)	> 25 µg/mL	0.097 µg/mL (≈ 0.135 µM)	> 25 µg/mL	> 25 µg/mL	> 25 µg/mL	0.195 µg/mL (≈ 0.271 µM)	3.12 µg/mL (≈ 4.33 µM)	half-life ([2]; pH 2, read-out: t 1/2): > 100 h; solubility in water phase [29]: more soluble than the others in water phase; MIC [20]: > 25 µg/mL; MIC [21]: 0.097 µg/mL (≈ 0.135 µM); MIC [22]: 3.12 µg/mL (≈ 4.33 µM); MIC [23]: 3.12 µg/mL (≈ 4.33 µM); MIC [24]: 6.25 µg/mL (≈ 8.68 µM); MIC [25]: 6.25 µg/mL (≈ 8.68 µM); MIC [26]: > 25 µg/mL; MIC [27]: > 25 µg/mL; MIC [28]: > 25 µg/mL

— US4560662A, “Streptomyces antibioticus ATCC 31771 and process for obtaining same” (priority 1981, dated 1985)
